Measured values reported in US8445492B2, “Method for inhibiting growth of cancer cells and cell telomere and diseases of cell proliferation by using heteroannelated anthraquinone derivative compounds” (National Defense Medical Center, priority 2008, dated 2013).
Like-named read-outs stand apart in the source and are kept apart here.

What was measured:
ACHN [1] = experiment: NCI DTP in-vitro dose response, Renal Cancer; assay type: cell-based
NCI-H226 = settings: for TGI: NCI-H226
NCI/ADR-RES = experiment: NCI DTP in-vitro dose response, Breast Cancer; assay type: cell-based
SF-268 = experiment: NCI DTP in-vitro dose response, CNS Cancer; assay type: cell-based
OVCAR-8 = experiment: NCI DTP in-vitro dose response, Ovarian Cancer; assay type: cell-based
HCC-2998 = experiment: in vitro test at 1.0×10^−5 M, Colorectal cancer cell; assay type: cell-based; settings: 1.0×10^−5 molal concentration (M)
COLO 205 = experiment: NCI DTP in-vitro dose response, Colon Cancer; assay type: cell-based
A498 = experiment: NCI DTP in-vitro dose response, Renal Cancer; assay type: cell-based
SNB-75 = experiment: NCI DTP in-vitro dose response, CNS Cancer; assay type: cell-based
OVCAR-4 = experiment: NCI DTP in-vitro dose response, Ovarian Cancer; assay type: cell-based
MALME-3M = experiment: NCI DTP in-vitro dose response, Melanoma; assay type: cell-based
NCI-H23 = settings: for TGI: NCI-H23
SNB-19 = experiment: NCI DTP in-vitro dose response, CNS Cancer; assay type: cell-based
TK-10 = experiment: NCI DTP in-vitro dose response, Renal Cancer; assay type: cell-based
OVCAR-3 = experiment: NCI DTP in-vitro dose response, Ovarian Cancer; assay type: cell-based
SK-MEL-2 [2] = experiment: NCI DTP in-vitro dose response, Melanoma; assay type: cell-based
SN12C = experiment: in vitro test at 1.0×10^−5 M, Kidney cancer cell; assay type: cell-based; settings: 1.0×10^−5 molal concentration (M)
SK-MEL-2 [3] = experiment: in vitro test at 1.0×10^−5 M, Skin cancer cell; assay type: cell-based; settings: 1.0×10^−5 molal concentration (M)
MDA-MB-435 = experiment: in vitro test at 1.0×10^−5 M, Breast cancer cell; assay type: cell-based; settings: 1.0×10^−5 molal concentration (M)
SF-539 = experiment: in vitro test at 1.0×10^−5 M, CNS cancer cell; assay type: cell-based; settings: 1.0×10^−5 molal concentration (M)
ACHN [4] = experiment: in vitro test at 1.0×10^−5 M, Kidney cancer cell; assay type: cell-based; settings: 1.0×10^−5 molal concentration (M)
MCF7 = experiment: in vitro test at 1.0×10^−5 M, Breast cancer cell; assay type: cell-based; settings: 1.0×10^−5 molal concentration (M)
UACC-62 = experiment: in vitro test at 1.0×10^−5 M, Skin cancer cell; assay type: cell-based; settings: 1.0×10^−5 molal concentration (M)

O=C1c2ccccc2C(=O)c2c1ccc1nsnc21 [No. 22, Anthra[2,1-c][1,2,5]thiadiazole-6,11-dione]
TGI (ACHN [1]; ACHN): 3.33E−6 | GI50 (ACHN [1]; Homo sapiens, ACHN): 1.71 µM | Percent Growth (ACHN [1]; Log10 Concentration −4.0): −39% | Percent Growth (ACHN [1]; Log10 Concentration −5.0): −82% | Percent Growth (ACHN [1]; Log10 Concentration −6.0): 90% | Percent Growth (ACHN [1]; Log10 Concentration −7.0): 114% | Percent Growth (ACHN [1]; Log10 Concentration −8.0): 107% | Percent Growth (NCI-H226; Log10 Concentration −4.0): −5% | Percent Growth (NCI-H226; Log10 Concentration −5.0): 63% | Percent Growth (NCI-H226; Log10 Concentration −6.0): 75% | Percent Growth (NCI-H226; Log10 Concentration −7.0): 95% | Percent Growth (NCI-H226; Log10 Concentration −8.0): 97% | TGI (NCI-H226): 8.53E−5 | GI50 (NCI/ADR-RES; Homo sapiens, NCI/ADR-RES): 0.432 µM | CC50 (NCI/ADR-RES; Homo sapiens, NCI/ADR-RES, read-out: LC50): > 100 µM | Percent Growth (NCI/ADR-RES; Log10 Concentration −4.0): −17% | Percent Growth (NCI/ADR-RES; Log10 Concentration −5.0): −10% | Percent Growth (NCI/ADR-RES; Log10 Concentration −6.0): 20% | Percent Growth (NCI/ADR-RES; Log10 Concentration −7.0): 102% | Percent Growth (NCI/ADR-RES; Log10 Concentration −8.0): 107% | TGI (NCI/ADR-RES; NCI/ADR-RES): 4.80E−6 | GI50 (SF-268; Homo sapiens, SF-268): 3.55 µM | CC50 (SF-268; Homo sapiens, SF-268, read-out: LC50): > 100 µM | Percent Growth (SF-268; Log10 Concentration −4.0): −46% | Percent Growth (SF-268; Log10 Concentration −5.0): 17% | Percent Growth (SF-268; Log10 Concentration −6.0): 90% | Percent Growth (SF-268; Log10 Concentration −7.0): 98% | Percent Growth (SF-268; Log10 Concentration −8.0): 101% | TGI (SF-268; SF-268): 1.87E−5 | GI50 (OVCAR-8; Homo sapiens, OVCAR-8): 0.859 µM | CC50 (OVCAR-8; Homo sapiens, OVCAR-8, read-out: LC50): > 100 µM | Percent Growth (OVCAR-8; Log10 Concentration −4.0): −38% | Percent Growth (OVCAR-8; Log10 Concentration −5.0): −43% | Percent Growth (OVCAR-8; Log10 Concentration −6.0): 46% | Percent Growth (OVCAR-8; Log10 Concentration −7.0): 102% | Percent Growth (OVCAR-8; Log10 Concentration −8.0): 105% | TGI (OVCAR-8; OVCAR-8): 3.28E−6 | inhibition effect on cancer cell line (Table 2 value) (HCC-2998): −50.00 | TGI (COLO 205; COLO 205): 3.98E−6 | GI50 (COLO 205; Homo sapiens, COLO 205): 1.97 µM | CC50 (COLO 205; Homo sapiens, COLO 205, read-out: LC50): 8.04 µM | Percent Growth (COLO 205; Log10 Concentration −4.0): −71% | Percent Growth (COLO 205; Log10 Concentration −5.0): −66% | Percent Growth (COLO 205; Log10 Concentration −6.0): 98% | Percent Growth (COLO 205; Log10 Concentration −7.0): 87% | Percent Growth (COLO 205; Log10 Concentration −8.0): 95% | TGI (A498; A498): >1.00E−4 | GI50 (A498; Homo sapiens, A498): > 100 µM | CC50 (A498; Homo sapiens, A498, read-out: LC50): > 100 µM | Percent Growth (A498; Log10 Concentration −4.0): 84% | Percent Growth (A498; Log10 Concentration −5.0): 100% | Percent Growth (A498; Log10 Concentration −6.0): 96% | Percent Growth (A498; Log10 Concentration −7.0): 104% | Percent Growth (A498; Log10 Concentration −8.0): 105% | GI50 (SNB-75; Homo sapiens, SNB-75): 1.42 µM | CC50 (SNB-75; Homo sapiens, SNB-75, read-out: LC50): 5.22 µM | Percent Growth (SNB-75; Log10 Concentration −4.0): −100% | Percent Growth (SNB-75; Log10 Concentration −5.0): −100% | Percent Growth (SNB-75; Log10 Concentration −6.0): 77% | Percent Growth (SNB-75; Log10 Concentration −7.0): 66% | Percent Growth (SNB-75; Log10 Concentration −8.0): 76% | TGI (SNB-75; SNB-75): 2.73E−6 | GI50 (OVCAR-4; Homo sapiens, OVCAR-4): 0.52 µM | CC50 (OVCAR-4; Homo sapiens, OVCAR-4, read-out: LC50): 4.19 µM | Percent Growth (OVCAR-4; Log10 Concentration −4.0): −100% | Percent Growth (OVCAR-4; Log10 Concentration −5.0): −100% | Percent Growth (OVCAR-4; Log10 Concentration −6.0): 32% | Percent Growth (OVCAR-4; Log10 Concentration −7.0): 94% | Percent Growth (OVCAR-4; Log10 Concentration −8.0): 107% | TGI (OVCAR-4; OVCAR-4): 1.76E−6 | GI50 (MALME-3M; Homo sapiens, Malme-3M): 2.37 µM | CC50 (MALME-3M; Homo sapiens, Malme-3M, read-out: LC50): 9.55 µM | Percent Growth (MALME-3M; Log10 Concentration −4.0): −72% | Percent Growth (MALME-3M; Log10 Concentration −5.0): −53% | Percent Growth (MALME-3M; Log10 Concentration −6.0): 112% | Percent Growth (MALME-3M; Log10 Concentration −7.0): 115% | Percent Growth (MALME-3M; Log10 Concentration −8.0): 102% | TGI (MALME-3M; MALME-3M): 4.76E−6 | Percent Growth (NCI-H23; Log10 Concentration −4.0): −35% | Percent Growth (NCI-H23; Log10 Concentration −5.0): −37% | Percent Growth (NCI-H23; Log10 Concentration −6.0): 46% | Percent Growth (NCI-H23; Log10 Concentration −7.0): 91% | Percent Growth (NCI-H23; Log10 Concentration −8.0): 101% | TGI (NCI-H23): 3.59E−6 | GI50 (SNB-19; Homo sapiens, SNB-19): 1.86 µM | CC50 (SNB-19; Homo sapiens, SNB-19, read-out: LC50): 6.43 µM | Percent Growth (SNB-19; Log10 Concentration −4.0): −98% | Percent Growth (SNB-19; Log10 Concentration −5.0): −86% | Percent Growth (SNB-19; Log10 Concentration −6.0): 100% | Percent Growth (SNB-19; Log10 Concentration −7.0): 101% | Percent Growth (SNB-19; Log10 Concentration −8.0): 102% | TGI (SNB-19; SNB-19): 3.46E−6 | GI50 (TK-10; Homo sapiens, TK-10): 34.9 µM | CC50 (TK-10; Homo sapiens, TK-10, read-out: LC50): > 100 µM | Percent Growth (TK-10; Log10 Concentration −4.0): −7% | Percent Growth (TK-10; Log10 Concentration −5.0): 118% | Percent Growth (TK-10; Log10 Concentration −6.0): 144% | Percent Growth (TK-10; Log10 Concentration −7.0): 133% | Percent Growth (TK-10; Log10 Concentration −8.0): 117% | TGI (TK-10; TK-10): 8.80E−5 | GI50 (OVCAR-3; Homo sapiens, OVCAR-3): 2.06 µM | CC50 (OVCAR-3; Homo sapiens, OVCAR-3, read-out: LC50): 28.2 µM | Percent Growth (OVCAR-3; Log10 Concentration −4.0): −75% | Percent Growth (OVCAR-3; Log10 Concentration −5.0): −29% | Percent Growth (OVCAR-3; Log10 Concentration −6.0): 86% | Percent Growth (OVCAR-3; Log10 Concentration −7.0): 110% | Percent Growth (OVCAR-3; Log10 Concentration −8.0): 116% | TGI (OVCAR-3; OVCAR-3): 5.59E−6 | GI50 (SK-MEL-2 [2]; Homo sapiens, SK-MEL-2): 2.38 µM | CC50 (SK-MEL-2 [2]; Homo sapiens, SK-MEL-2, read-out: LC50): > 100 µM | Percent Growth (SK-MEL-2 [2]; Log10 Concentration −4.0): −32% | Percent Growth (SK-MEL-2 [2]; Log10 Concentration −5.0): −22% | Percent Growth (SK-MEL-2 [2]; Log10 Concentration −6.0): 94% | Percent Growth (SK-MEL-2 [2]; Log10 Concentration −7.0): 109% | Percent Growth (SK-MEL-2 [2]; Log10 Concentration −8.0): 110% | TGI (SK-MEL-2 [2]; SK-MEL-2): 6.42E−6

CCc1nc2ccc3c(c2[nH]1)C(=O)c1ccccc1C3=O [No. 4, 2-Ethyl-1(3)H-anthra[1,2-d]imidazole-6,11-dione]
Percent Growth (NCI-H226; Log10 Concentration −4.0): 22% | Percent Growth (NCI-H226; Log10 Concentration −5.0): 63% | Percent Growth (NCI-H226; Log10 Concentration −6.0): 85% | Percent Growth (NCI-H226; Log10 Concentration −7.0): 89% | Percent Growth (NCI-H226; Log10 Concentration −8.0): 85% | TGI (NCI-H226): >1.00E−4 | inhibition effect on cancer cell line (Table 2 value) (SN12C): 68.53 | inhibition effect on cancer cell line (Table 2 value) (SK-MEL-2 [3]): 40.07 | inhibition effect on cancer cell line (Table 2 value) (MDA-MB-435): 84.39 | inhibition effect on cancer cell line (Table 2 value) (HCC-2998): 67.67 | Percent Growth (NCI-H23; Log10 Concentration −4.0): 21% | Percent Growth (NCI-H23; Log10 Concentration −5.0): 49% | Percent Growth (NCI-H23; Log10 Concentration −6.0): 74% | Percent Growth (NCI-H23; Log10 Concentration −7.0): 88% | Percent Growth (NCI-H23; Log10 Concentration −8.0): 92% | TGI (NCI-H23): >1.00E−4 | inhibition effect on cancer cell line (Table 2 value) (SF-539): 83.16 | inhibition effect on cancer cell line (Table 2 value) (ACHN [4]): 24.97 | inhibition effect on cancer cell line (Table 2 value) (MCF7): 69.82 | inhibition effect on cancer cell line (Table 2 value) (UACC-62): 51.35
